In assay [1] the test system is rat myocardial I/R model. Briefly: Myocardial infarction area by TTC staining. Format: in vivo. The note with it: for infarction region on TTC-stained heart slices, in contrast to I/R group / inhibition of the increase of the myocardial infarction area percentage caused by I/R: 5 mg/kg BW/h intravenous drip, 60 min after reperfusion, FIG. 6A. The method, then: The rats were anesthetized by intramuscularly injecting 20 wt % urethane (1.25 g/kg) and fixed in the supine position. Neck skin was incised and anterior cervical muscles were separated to expose the trachea. Tracheal intubation was performed. Another end of the intubation was attached to a Small Animal Ventilator (ALC-V8, Shanghai Aoteshai Biology Science and Technology Limited Company, Shanghai, China) so as to carry out pressure breathing under the following conditions: a respiratory ratio of 1:1, a respiratory frequency of 75 times/min and a tidal volume of 12 mL/kg. The rectal temperature, measured with YSI REF 401 (Yellow Spring, Ohio, USA), was maintained at 37 37.5° C. by using a thermal blanket. The chest was sterilized and opened at the intercostal space between 2nd 4th ribs near the left and right sternal border to expose the heart. The 3⁄8 curved needle threaded with 3-0 suture was used to pass through the site at 1 2 mm below the juncture of the pulmonary artery cone and the left atrial appendage. The suture was ligated. A polyethylene tubule was placed between the silk suture and myocardial tissue, the silk suture was […] to cause ischemia. Ligature was released 30 min later to establish an I/R model. Danshensu+I/R group (DLA+I/R group): a Danshensu aqueous solution (in normal saline, 1.25 mg/ml) was administrated at a dosage of 5 mg/kg BW/h by intravenous drip 20 min before the experiment and continued until the end of the entire experiment. Notoginsenoside R1+I/R group (R1+I/R group): a Notoginsenoside R1 aqueous solution (in normal saline, 1.25 mg/ml) was administrated at a dosage of 5 mg/kg BW/h by intravenous drip 20 min before the experiment and continued until the end of the entire experiment. Danshensu:R1(4:1)+I/R group (DR(4:1)+I/R group): an aqueous solution of Danshensu and Notoginsenoside R1 at a weight ratio of 4:1, dissolved in normal saline (1.25 mg/ml, namely, in the solution, the concentration of Danshensu is 1 mg/ml and the concentration of Notoginsenoside R1 is 0.25 mg/ml), was administrated at a dosage of 5 mg/kg BW/h (namely, in the total dosage, the dosage of Danshensu is 4 mg/kg BW/h and the dosage of Notoginsenoside R1 is 1 mg/kg BW/h) by intravenous drip 20 min before the experiment and continued until the end of the entire experiment. Danshensu:R1 (1:1)+I/R group (DR(1:1)+IR group): an aqueous solution of Danshensu and Notoginsenoside R1 at a weight ratio of 1:1, dissolved in normal saline (1.25 mg/ml, namely, in the solution, the concentration of Danshensu is 0.625 mg/ml and the concentration of Notoginsenoside R1 is 0.625 mg/ml), was administrated at a dosage of 5 mg/kg BW/h (namely, in the total dosage, the dosage of Danshensu is 2.5 mg/kg BW/h and the dosage of Notoginsenoside R1 is 2.5 mg/kg BW/h) by intravenous drip 20 min before the experiment and continued until the end of the entire experiment. Danshensu:R1 (0.25:1)+I/R group (DR(0.25:1)+IR group): an aqueous solution of Danshensu and Notoginsenoside R1 at a weight ratio of 0.25:1, dissolved in normal saline (1.25 mg/ml, namely, in the solution, the concentration of Danshensu is 0.25 mg/ml and the concentration of Notoginsenoside R1 is 1.0 mg/ml), was administrated at a dosage of 5 mg/kg BW/h (namely, in the total dosage, the dosage of Danshensu is 1 mg/kg BW/h and the dosage of Notoginsenoside R1 is 4 mg/kg BW/h) by intravenous drip 20 min before the experiment and continued until the end of the entire experiment. […]

Assay [2] concerns rat myocardial I/R model. Briefly: FITC-labeled plasma albumin leakage from the venules of heart coronary vessels. The format is in vivo. The following applies: 5 mg/kg BW/h intravenous drip, 60 min after reperfusion; for FITC-labeled albumin leakage from the venules of the coronary vessels (images): FIG. 3A; for inhibitory effect on FITC-labeled albumin leakage (ratio of fluorescence intensity outside to inside the venules): FIG. 3B. The method, then:
The rats were anesthetized by intramuscularly injecting 20 wt % urethane (1.25 g/kg) and fixed in the supine position. Neck skin was incised and anterior cervical muscles were separated to expose the trachea. Tracheal intubation was performed. Another end of the intubation was attached to a Small Animal Ventilator (ALC-V8, Shanghai Aoteshai Biology Science and Technology Limited Company, Shanghai, China) so as to carry out pressure breathing under the following conditions: a respiratory ratio of 1:1, a respiratory frequency of 75 times/min and a tidal volume of 12 mL/kg. The rectal temperature, measured with YSI REF 401 (Yellow Spring, Ohio, USA), was maintained at 37 37.5° C. by using a thermal blanket. The chest was sterilized and opened at the intercostal space between 2nd 4th ribs near the left and right sternal border to expose the heart. The 3⁄8 curved needle threaded with 3-0 suture was used to pass through the site at 1 2 mm below the juncture of the pulmonary artery cone and the left atrial appendage. The suture was ligated. A polyethylene tubule was placed between the silk suture and myocardial tissue, the silk suture was […] to cause ischemia. Ligature was released 30 min later to establish an I/R model. Danshensu+I/R group (DLA+I/R group): a Danshensu aqueous solution (in normal saline, 1.25 mg/ml) was administrated at a dosage of 5 mg/kg BW/h by intravenous drip 20 min before the experiment and continued until the end of the entire experiment. Notoginsenoside R1+I/R group (R1+I/R group): a Notoginsenoside R1 aqueous solution (in normal saline, 1.25 mg/ml) was administrated at a dosage of 5 mg/kg BW/h by intravenous drip 20 min before the experiment and continued until the end of the entire experiment. Danshensu:R1(4:1)+I/R group (DR(4:1)+I/R group): an aqueous solution of Danshensu and Notoginsenoside R1 at a weight ratio of 4:1, dissolved in normal saline (1.25 mg/ml, namely, in the solution, the concentration of Danshensu is 1 mg/ml and the concentration of Notoginsenoside R1 is 0.25 mg/ml), was administrated at a dosage of 5 mg/kg BW/h (namely, in the total dosage, the dosage of Danshensu is 4 mg/kg BW/h and the dosage of Notoginsenoside R1 is 1 mg/kg BW/h) by intravenous drip 20 min before the experiment and continued until the end of the entire experiment. […] Under an upright fluorescence microscope (USS-301, Leica, US), fluorescence image of each group was recorded with SIT camera by using a light at 455 nm as an exciting light and a mercury lamp (100 W) as an emission source. FITC fluorescence intensities inside the venules and the adjacent extravascular interstitial substance were measured with Image-Pro Plus 5.0 software, respectively. […]

On to `CC(C)=CCC[C@](C)(O[C@@H]1O[C@H](CO)[C@@H](O)[C@H](O)[C@H]1O)[C@H]1CC[C@]2(C)[C@@H]1[C@H](O)C[C@@H]1[C@@]3(C)CC[C@H](O)C(C)(C)[C@@H]3[C@@H](O[C@@H]3O[C@H](CO)[C@@H](O)[C@H](O)[C@H]3O[C@@H]3OC[C@@H](O)[C@H](O)[C@H]3O)C[C@]12C` [Notoginsenoside R1], for which, in assay [1], the “infarction region on TTC-stained heart slices, in contrast to I/R group” value was “decreased slightly” and the “inhibition of the increase of the myocardial infarction area percentage caused by I/R” value is “has not significantly inhibited”. In assay [2], the “FITC-labeled albumin leakage from the venules of the coronary vessels (images)” value is listed as “can also be observed” and the “inhibitory effect on FITC-labeled albumin leakage (ratio of fluorescence intensity outside to inside the venules)” value is “Significant inhibitory effect on FITC-labeled albumin leakage has not been observed”.
For `O=C(O)C(O)Cc1ccc(O)c(O)c1` (stereo not drawn) [Danshensu, (3,4-dihydroxyphenyl)lactic acid], in assay [1], the “infarction region on TTC-stained heart slices, in contrast to I/R group” value was “decreased obviously” and the “inhibition of the increase of the myocardial infarction area percentage caused by I/R” value is “significantly suppress”. For the same compound, in assay [1] (rats, summary statement of the description), the “reduction of the percentage of the myocardial infarction area after I/R (summary)” value is “can reduce”. In assay [2], the “FITC-labeled albumin leakage from the venules of the coronary vessels (images)” value is reported as “can also be observed” and the “inhibitory effect on FITC-labeled albumin leakage (ratio of fluorescence intensity outside to inside the venules)” value is given as “Significant inhibitory effect on FITC-labeled albumin leakage has not been observed”.
